Tests used:
[1] = molecular target: T1, human CCR5 (Homo sapiens, UniProt P51681); test: Inhibition of [125I]-RANTES binding to human CCR5 in CHO/CCR5 cells (CCR5 antagonistic activity); conditions: Test Compound 1 μM, 100 pM [125I]-RANTES, room temperature, 40 minutes, read-out: Inhibition Rate (CCR5 binding)
T1 construct: expressed in transfected cells; host or cells: CHO-K1 cells, electroporated with plasmid pCKR5 (pcDNA3.1 backbone), geneticin-selected (CHO/CCR5)
Description: Cloning of CCR5 gene was carried out by PCR (polymerase chain reaction) from human spleen cDNA. With using 0.5 ng of spleen cDNA (Toyobo, QUICK-Clone cDNA) as template, PCR was performed in DNA Thermal Cycler 480 (Perkin-Elmer) (reaction conditions: 30 cycles of 95° C. for 1 minute, 60° C. for 1 minute, and 75° C. for 5 minutes) by adding primer set, 5'-[…]-3' (25 pmol) and 5'-[…]-3' (25 pmol), which were designed referring to nucleotide sequence of CCR5 gene reported by Samson et al. (Biochemistry, 35(11), 3362-3367 (1996)) and by using TaKaRa EX Taq (TakaraShuzo). The resultant PCR product was subjected to agarose gel. electrophoresis to collect about 1.0 kb DNA fragment, which was subjected to Original TA Cloning Kit (Funakoshi) to carry out cloning of CCR5 gene.
The plasmid obtained in the above (1) was digested with restriction enzymes XbaI (Takara Shuzo) and BamHI (Takara Shuzo) and subjected to agarose gel electrophoresis to collect about 1.0 kb DNA fragment. The DNA fragment was mixed with plasmid pcDNA3.1 (Funakoshi) for expression in animal cells, said plasmid being digested with XbaI and BamHI, and they were ligated with DNA Ligation Kit Ver.2 (Takara Shuzo). The resulting plasmid was subjected to transformation of competent cell of E. coli JM109 (Takara Shuzo) to obtain plasmid pCKR5.
CHO-K1 cells were grown in 750 ml of tissue culture flask (Becton Dickinson) using Ham's F12 medium (Nihon Pharmaceutical) containing 10% fetal calf serum (Life Tech Oriental) and took off with 0.5 g/L trypsin-0.2 g/L EDTA (Life Tech Oriental). The cells were washed with PBS (Life Tech Oriental), centrifuged (1000 rpm, 5 minutes), and suspended in PBS. With using Gene Pulser (Bio-Rad Laboratories), DNA was introduced into the cells under the conditions shown below. That is, to the cuvette of 0.4 cm gap were added 8×10^6 cells and 10 μg of plasmid pCKR5 for expression of human CCR5, and electroporation was carried out under 0.25 kV of voltage and 960 μF of capacitance. The cells were transferred into Ham's F12 medium (Nihon Pharmaceutical) containing 10% fetal calf serum, and cultivated for 24 hours. The cells were again took off and centrifuged, and suspended in Ham's F12 medium (Nihon Pharmaceutical) containing 10% fetal calf serum and 500 μg/ml of geneticin (Life Tech Oriental). The suspension was diluted to give 10^4 cells/ml of the suspension, which was inoculated on 96 well plate (Becton Dickinson) to give geneticin resistant cells. The resulting geneticin resistant cells were cultivated in 96 well plate (Becton Dickinson), and cells expressing CCR5 were selected from the geneticin resistant cells. That is, in assay buffer (Ham's F12 medium containing 0.5% BSA and 20 mM HEPES (Wako Pure Chemical, pH7.2) to which was added 200 pM of [^125 I]-RANTES (Amersham) as ligand, binding reaction was carried out at room temperature for 40 minutes, and the buffer was washed with cooled PBS. To the buffer was added 50 μl/well of 1M NaOH, and the mixture was stirred. Radioactivity was determined with γ-counter to select CHO/CCR5 cells which specifically bind to the ligand.
The CHO/CCR5 were inoculated on 96 well microplate (5×10^4 cells/well) and cultivated for 24 hours. The medium was removed by means of suction, and to each well was added assay buffer containing Test Compound (1 μM) and then 100 pM of [^125 I]-RANTES (Amersham) as ligand. Binding assay was carried out at room temperature for 40 minutes, and assay buffer was removed by means of suction. Each well was washed twice with cooled PBS, and 200 μl of Microscint-20 (Packard Instrument, Inc.) was added to each well. Radio-activity was determined with Top-Count Micro Scintillation Counter (Packard Instrument, Inc.).
According to the method described above, inhibition rate of Test Compound (whose number is referred to in the following Examples) to CCR5 binding.

[2] = tested on: HIV-1 BA-L; test: Inhibitory effect on HIV-1 infection to MAGI-CCR5 cell (β-galactosidase activity); assay type: cell-based; conditions: 100 μl of medium containing 1.6 μM Test Compound plus 100 μl of medium containing 300PFU HIV-1 BA-L; MAGI-CCR5 cells; 37° C., 2 days
Description: The plasmid where β-galactosidase gene was ligated downstream of HIV-1 LTR was introduced into CD4 positive HeLa cell, to which human CCR5 was further introduced to obtain transformant MAGI-CCR5. By using said transformant MAGI-CCR5, degree of HIV-1 infection was calculated from β-galactosidase activity (blue color due to decomposition of 5-bromo-4-chloro-3-indolyl-β-D-galactopyranoside). Specifically, MAGI-CCR5 cells were suspended in DMEM medium containing 10% serum to prepare 5×10^4 cells/ml suspension. To each well of 96 well plate was inoculated 200 μl of the suspension, and the cells were cultivated at 37° C. overnight. The medium was removed by means of suction, and to the residue was added 100 μl of the above medium containing 1.6 μM of Test Compound and 100 μl of the above medium containing 300PFU of HIV-1 BA-L cells. The cells were cultivated at 37° C. for 2 days. The medium was removed by means of suction. To the residue was added 200 μl of cell fixative (PBS containing 1% formaldehyde and 0.2% glutaraldehyde), and the mixture was allowed to stand at room temperature for 5 minutes and washed twice with PBS. To the mixture was added 100 μl of staining solution (PBS containing […] and 0.4 mg/ml X-gal), and the mixture was allowed to stand at 37° C. for 50 minutes and washed twice with PBS. The number of blue cells was counted by microscope and defined as the number of cells infected with HIV-1. According to this method, inhibition rate on HIV-1 infection was determined.

T1 sequence (P51681 whole entry): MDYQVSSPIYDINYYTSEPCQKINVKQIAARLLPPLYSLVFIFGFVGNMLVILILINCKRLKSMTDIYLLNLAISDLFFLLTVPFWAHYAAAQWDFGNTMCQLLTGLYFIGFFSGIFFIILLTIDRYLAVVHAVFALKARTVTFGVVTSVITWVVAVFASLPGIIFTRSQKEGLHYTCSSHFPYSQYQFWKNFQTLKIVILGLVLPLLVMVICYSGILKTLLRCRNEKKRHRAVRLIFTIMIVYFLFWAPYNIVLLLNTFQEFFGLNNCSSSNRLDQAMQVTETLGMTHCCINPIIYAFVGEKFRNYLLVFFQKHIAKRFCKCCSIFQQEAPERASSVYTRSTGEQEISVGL

- inhibition at 1 µM [1]: 92%
SMILES: CCCOCCOc1ccc(-c2ccc3c(c2)C=C(C(=O)Nc2ccc(CN(C)C4CCOCC4)cc2)CCS3(=O)=O)cc1 [Compound 97, N-[4-[[N-methyl-N-(tetrahydropyran-4-yl)amino]methyl]phenyl]-7-[4-(2-propoxyethoxy)phenyl]-1,1-dioxo-2,3-dihydro-1-benzothiepine-4-carboxamide]
- Inhibition Rate (HIV-1 infection) [2]: 87%
